Measured values: patent US10875875B2, “Propionic acid derivatives and methods of use thereof” (Aviara Pharmaceuticals, Inc., priority 2017, dated 2020)

biological target: α4β1 (Homo sapiens, UniProt P05556+P13612); assay: α4β1 integrin inhibition, IC50; type: binding; settings: read-out: α4β1 IC50
Sequence (P13612 34-1032): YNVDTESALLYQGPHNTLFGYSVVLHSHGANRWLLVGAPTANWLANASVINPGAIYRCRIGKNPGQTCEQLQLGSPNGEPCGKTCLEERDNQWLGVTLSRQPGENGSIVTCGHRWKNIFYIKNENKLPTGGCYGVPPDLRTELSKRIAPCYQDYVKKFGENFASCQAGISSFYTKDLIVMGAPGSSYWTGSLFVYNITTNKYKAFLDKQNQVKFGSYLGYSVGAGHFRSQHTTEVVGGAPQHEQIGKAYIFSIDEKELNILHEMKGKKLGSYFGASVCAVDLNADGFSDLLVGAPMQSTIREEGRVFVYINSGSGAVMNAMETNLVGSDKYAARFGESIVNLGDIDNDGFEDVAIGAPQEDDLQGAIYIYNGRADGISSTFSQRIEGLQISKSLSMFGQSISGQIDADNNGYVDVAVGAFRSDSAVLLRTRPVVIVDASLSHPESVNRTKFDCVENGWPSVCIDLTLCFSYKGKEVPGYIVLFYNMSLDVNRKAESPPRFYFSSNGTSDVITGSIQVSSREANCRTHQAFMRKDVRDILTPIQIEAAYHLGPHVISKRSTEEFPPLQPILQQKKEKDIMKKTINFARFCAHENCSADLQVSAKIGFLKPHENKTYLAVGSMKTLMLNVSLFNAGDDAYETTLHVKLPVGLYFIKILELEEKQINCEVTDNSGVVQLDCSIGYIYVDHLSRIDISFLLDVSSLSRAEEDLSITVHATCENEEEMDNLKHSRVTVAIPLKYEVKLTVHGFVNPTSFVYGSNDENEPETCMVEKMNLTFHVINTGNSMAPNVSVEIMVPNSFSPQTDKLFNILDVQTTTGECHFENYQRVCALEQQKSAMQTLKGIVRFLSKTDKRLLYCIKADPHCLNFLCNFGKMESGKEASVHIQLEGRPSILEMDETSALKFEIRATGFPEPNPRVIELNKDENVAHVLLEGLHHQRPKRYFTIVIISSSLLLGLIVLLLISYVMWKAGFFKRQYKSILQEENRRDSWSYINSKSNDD
Sequence (P05556 21-798): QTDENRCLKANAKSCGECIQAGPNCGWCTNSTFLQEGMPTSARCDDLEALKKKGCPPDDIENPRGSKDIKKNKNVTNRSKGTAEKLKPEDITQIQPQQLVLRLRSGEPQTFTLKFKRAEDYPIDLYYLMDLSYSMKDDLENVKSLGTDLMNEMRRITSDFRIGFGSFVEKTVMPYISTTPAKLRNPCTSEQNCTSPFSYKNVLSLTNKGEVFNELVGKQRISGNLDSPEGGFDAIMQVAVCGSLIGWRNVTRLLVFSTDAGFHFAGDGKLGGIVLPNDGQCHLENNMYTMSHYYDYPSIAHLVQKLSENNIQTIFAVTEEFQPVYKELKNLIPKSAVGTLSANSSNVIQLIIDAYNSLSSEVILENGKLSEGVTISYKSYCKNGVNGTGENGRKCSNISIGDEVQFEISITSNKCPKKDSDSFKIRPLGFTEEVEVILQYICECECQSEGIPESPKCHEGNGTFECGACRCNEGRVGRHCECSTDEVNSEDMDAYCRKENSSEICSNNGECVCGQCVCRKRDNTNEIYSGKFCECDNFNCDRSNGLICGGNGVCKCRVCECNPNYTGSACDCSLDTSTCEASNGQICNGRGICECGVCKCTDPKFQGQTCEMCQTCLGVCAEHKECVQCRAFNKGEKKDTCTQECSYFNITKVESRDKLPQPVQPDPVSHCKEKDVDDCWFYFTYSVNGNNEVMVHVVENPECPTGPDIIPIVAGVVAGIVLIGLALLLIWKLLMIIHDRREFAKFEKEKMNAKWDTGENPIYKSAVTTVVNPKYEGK

SMILES	IC50
Cc1ccccc1-c1cc([C@H](CC(=O)O)NC(=O)Nc2c(O)ccn(C)c2=O)ccc1F [1-612, sodium (S)-3-(6-fluoro-2′-methylbiphenyl-3-yl)-3-(3-(1-methyl-4-oxido-2-oxo-1,2-dihydropyridin-3-yl)ureido)propanoate]	< 20 nM
Cn1ccc(O)c(NC(=O)N[C@@H](CC(=O)O)c2cccc(-c3cc[nH]c3)c2)c1=O [1-544, sodium (S)-3-(3-(1H-pyrrol-3-yl)phenyl)-3-(3-(1-methyl-4-oxido-2-oxo-1,2-dihydropyridin-3-yl)ureido)propanoate]	< 20 nM
Cc1ccc([C@H](CC(=O)O)NC(=O)Nc2c(O)ccn(C)c2=O)cc1-c1cccc(Cl)c1 [1-555, sodium (S)-3-(3′-chloro-6-methylbiphenyl-3-yl)-3-(3-(1-methyl-4-oxido-2-oxo-1,2-dihydropyridin-3-yl)ureido)propanoate]	< 20 nM
COc1cccc(-c2cccc([C@H](CC(=O)O)NC(=O)Nc3c(O)ccn(C)c3=O)c2)n1 [sodium (S)-3-(3-(6-methoxypyridin-2-yl)phenyl)-3-(3-(1-methyl-4-oxido-2-oxo-1,2-dihydropyridin-3-yl)ureido)propanoate]	< 20 nM
Cc1cn(C)c(=O)c(NC(=O)NC(CC(=O)O)c2cccc(-c3ccc(Cl)cc3)c2)c1O (centres unmarked) [1-471, sodium 3-(4′-chlorobiphenyl-3-yl)-3-(3-(1,5-dimethyl-4-oxido-2-oxo-1,2-dihydropyridin-3-yl)ureido)propanoate]	< 200 nM
COc1cccc(-c2cccc([C@H](CC(=O)O)NC(=O)Nc3c(O)c(C)cn(C)c3=O)c2)c1C [1-489, sodium (S)-3-(3-(1,5-dimethyl-4-oxido-2-oxo-1,2-dihydropyridin-3-yl)ureido)-3-(3′-methoxy-2′-methylbiphenyl-3-yl)propanoate]	< 200 nM
Cn1ccc(O)c(NC(=O)N[C@@H](CC(=O)O)c2cccc(-n3cccc3)c2)c1=O [1-507, sodium (S)-3-(3-(1H-pyrrol-1-yl)phenyl)-3-(3-(1-methyl-4-oxido-2-oxo-1,2-dihydropyridin-3-yl)ureido)propanoate]	< 20 nM
Cn1ccc(O)c(NC(=O)N[C@@H](CC(=O)O)c2cccc(-c3nccs3)c2)c1=O [1-630, sodium (S)-3-(3-(1-methyl-4-oxido-2-oxo-1,2-dihydropyridin-3-yl)ureido)-3-(3-(thiazol-2-yl)phenyl)propanoate]	< 20 nM
COc1ccc(-c2cccc([C@H](CC(=O)O)NC(=O)Nc3c(O)c(C)cn(C)c3=O)c2)cc1OC [1-469, sodium (S)-3-(3′,4′-dimethoxybiphenyl-3-yl)-3-(3-(1,5-dimethyl-4-oxido-2-oxo-1,2-dihydropyridin-3-yl)ureido)propanoate]	< 20 nM
COc1cccc(-c2cc(C)cc([C@H](CC(=O)O)NC(=O)Nc3c(O)cc(C)n(C)c3=O)c2)c1 [1-586, sodium (S)-3-(3-(1,6-dimethyl-4-oxido-2-oxo-1,2-dihydropyridin-3-yl)ureido)-3-(3′-methoxy-5-methylbiphenyl-3-yl)propanoate]	< 20 nM
Cn1ccc(O)c(NC(=O)N[C@@H](CC(=O)O)c2cc(-c3cccc(OC(F)(F)F)c3)ccc2F)c1=O [1-594, sodium (S)-3-(4-fluoro-3′-(trifluoromethoxy)biphenyl-3-yl)-3-(3-(1-methyl-4-oxido-2-oxo-1,2-dihydropyridin-3-yl)ureido)propanoate]	< 20 nM
Cc1cccc(-c2cccc([C@H](CC(=O)O)NC(=O)Nc3c(O)c(C)cn(C)c3=O)c2)c1C [1-462, sodium (S)-3-(3-(1,5-dimethyl-4-oxido-2-oxo-1,2-dihydropyridin-3-yl)ureido)-3-(2′,3′-dimethylbiphenyl-3-yl)propanoate]	< 200 nM
Cc1cn(C)c(=O)c(NC(=O)N[C@@H](CC(=O)O)c2cccc(-c3ccccc3)c2C)c1O [1-500, sodium (S)-3-(3-(1,5-dimethyl-4-oxido-2-oxo-1,2-dihydropyridin-3-yl)ureido)-3-(2-methylbiphenyl-3-yl)propanoate]	> 200 nM
COc1cc(-c2ccccc2)cc([C@H](CC(=O)O)NC(=O)Nc2c(O)ccn(C)c2=O)c1 [1-558, sodium (S)-3-(5-methoxybiphenyl-3-yl)-3-(3-(1-methyl-4-oxido-2-oxo-1,2-dihydropyridin-3-yl)ureido)propanoate]	< 20 nM
Cc1cccc(C)c1-c1ccc([C@H](CC(=O)O)NC(=O)Nc2c(O)cc(C)n(C)c2=O)cc1 [1-638, sodium (S)-3-(3-(1,6-dimethyl-4-oxido-2-oxo-1,2-dihydropyridin-3-yl)ureido)-3-(2′,6′-dimethylbiphenyl-4-yl)propanoate]	< 200 nM
Cc1cn(C)c(=O)c(NC(=O)N[C@@H](CC(=O)O)c2cccc(-c3ccc(F)c(F)c3)c2)c1O [1-458, sodium (S)-3-(3′,4′-difluorobiphenyl-3-yl)-3-(3-(1,5-dimethyl-4-oxido-2-oxo-1,2-di hydropyridin-3-yl)ureido)propanoate]	< 20 nM
COc1ccc(-c2ccccc2)cc1[C@H](CC(=O)O)NC(=O)Nc1c(O)ccn(C)c1=O [1-596, sodium (S)-3-(4-methoxybiphenyl-3-yl)-3-(3-(1-methyl-4-oxido-2-oxo-1,2-dihydropyridin-3-yl)ureido)propanoate]	< 20 nM
Cc1cccc(C)c1-c1cc(F)cc([C@H](CC(=O)O)NC(=O)Nc2c(O)ccn(C)c2=O)c1 [1-600, sodium (S)-3-(5-fluoro-2′,6′-dimethylbiphenyl-3-yl)-3-(3-(1-methyl-4-oxido-2-oxo-1,2-dihydropyridin-3-yl)ureido)propanoate]	< 20 nM
Cn1ccc(O)c(NC(=O)N[C@@H](CC(=O)O)c2cc(-c3ccccc3)ccc2F)c1=O [1-570, sodium (S)-3-(4-fluorobiphenyl-3-yl)-3-(3-(1-methyl-4-oxido-2-oxo-1,2-dihydropyridin-3-yl)ureido)propanoate]	< 20 nM
Cc1cn(C)c(=O)c(NC(=O)N[C@@H](CC(=O)O)c2cccc(-c3cc(F)cc(F)c3)c2)c1O [1-453, sodium (S)-3-(3′,5′-difluorobiphenyl-3-yl)-3-(3-(1,5-dimethyl-4-oxido-2-oxo-1,2-di hydropyridin-3-yl)ureido)propanoate]	< 20 nM
Cn1ccc(O)c(NC(=O)N[C@@H](CC(=O)O)c2ccc(-c3cccc(OC(F)(F)F)c3)s2)c1=O [1-601, sodium (S)-3-(3-(1-methyl-4-oxido-2-oxo-1,2-dihydropyridin-3-yl)ureido)-3-(5-(3-(trifluoromethoxy)phenyl)thiophen-2-yl)propanoate]	< 20 nM

Continued, values first:

IC50	SMILES
< 20 nM	COc1ccc([C@H](CC(=O)O)NC(=O)Nc2c(O)cc(C)n(C)c2=O)cc1-c1cccc(OC(F)(F)F)c1 [1-554, sodium (S)-3-(3-(1,6-dimethyl-4-oxido-2-oxo-1,2-dihydropyridin-3-yl)ureido)-3-(6-methoxy-3′-(trifluoromethoxy)biphenyl-3-yl)propanoate]
< 20 nM	COc1cccc(-c2cc([C@H](CC(=O)O)NC(=O)Nc3c(O)cc(C)n(C)c3=O)ccc2C)c1 [1-569, sodium (S)-3-(3-(1,6-dimethyl-4-oxido-2-oxo-1,2-dihydropyridin-3-yl)ureido)-3-(3′-methoxy-6-methylbiphenyl-3-yl)propanoate]
< 20 nM	Cc1cc(O)c(NC(=O)N[C@@H](CC(=O)O)c2ccc(-c3ccc(F)cc3F)cc2)c(=O)n1C [1-622, sodium (S)-3-(2′,4′-difluorobiphenyl-4-yl)-3-(3-(1,6-dimethyl-4-oxido-2-oxo-1,2-dihydropyridin-3-yl)ureido)propanoate]
< 20 nM	Cc1cc(O)c(NC(=O)N[C@@H](CC(=O)O)c2cc(F)cc(-c3cccc(OC(F)(F)F)c3)c2)c(=O)n1C [1-606, sodium (S)-3-(3-(1,6-dimethyl-4-oxido-2-oxo-1,2-dihydropyridin-3-yl)ureido)-3-(5-fluoro-3′-trifluoromethoxybiphenyl-3-yl)propanoate]
< 20 nM	Cc1ccccc1-c1cc([C@H](CC(=O)O)NC(=O)Nc2c(O)cc(C)n(C)c2=O)ccc1F [1-611, sodium (S)-3-(3-(1,6-dimethyl-4-oxido-2-oxo-1,2-dihydropyridin-3-yl)ureido)-3-(6-fluoro-2′-methylbiphenyl-3-yl)propanoate]
< 20 nM	Cn1c2c(c(O)c(NC(=O)N[C@@H](CC(=O)O)c3cccc(-c4ccc(F)cc4F)c3)c1=O)CCC2 [1-513, sodium (S)-3-(2′,4′-difluorobiphenyl-3-yl)-3-(3-(1-methyl-4-oxido-2-oxo-2,5,6,7-tetrahydro-1H-cyclopenta[b]pyridin-3-yl)ureido)propanoate]
< 20 nM	Cc1cc(O)c(NC(=O)N[C@@H](CC(=O)O)c2cc(-c3ccc(F)cc3F)ccc2F)c(=O)n1C [1-592, sodium (S)-3-(3-(1,6-dimethyl-4-oxido-2-oxo-1,2-dihydropyridin-3-yl)ureido)-3-(2′,4,4′-trifluorobiphenyl-3-yl)propanoate]
< 20 nM	Cc1ccc([C@H](CC(=O)O)NC(=O)Nc2c(O)ccn(C)c2=O)cc1-c1ccc(F)cc1F [1-541, sodium (S)-3-(2′,4′-difluoro-6-methylbiphenyl-3-yl)-3-(3-(1-methyl-4-oxido-2-oxo-1,2-dihydropyridin-3-yl)ureido)propanoate]
< 20 nM	Cc1cn(C)c(=O)c(NC(=O)N[C@@H](CC(=O)O)c2ccc(-c3ccc(F)cc3F)cc2)c1O [1-623, sodium (S)-3-(2′,4′-difluorobiphenyl-4-yl)-3-(3-(1,5-dimethyl-4-oxido-2-oxo-1,2-di hydropyridin-3-yl)ureido)propanoate]
> 200 nM	Cc1cc(O)c(NC(=O)N[C@@H](CC(=O)O)c2cccc(-c3ccc(F)cc3F)c2)c(=O)[nH]1 [1-557, sodium (S)-3-(2′,4′-difluorobiphenyl-3-yl)-3-(3-(6-methyl-4-oxido-2-oxo-1,2-dihydropyridin-3-yl)ureido)propanoate]
< 20 nM	Cc1cccc(C)c1-c1cc([C@H](CC(=O)O)NC(=O)Nc2c(O)cc(C)n(C)c2=O)ccc1F [1-578, sodium (S)-3-(3-(1,6-dimethyl-4-oxido-2-oxo-1,2-dihydropyridin-3-yl)ureido)-3-(6-fluoro-2′,6′-dimethylbiphenyl-3-yl)propanoate]
